# Measurements: patent publication US9345682B2, “Inhibition of STAT3 signal transduction for human cancer therapy” (University of South Florida, priority 1999, dated 2016)
# Assays:
# Assay type in all cases: cell-based, human
# 8226 cells = experiment: Fas-mediated apoptosis (Annexin V, flow cytometry) in 8226 cells; conditions: IL-6-independent 8226 cells, AG490 treatment
# Description: For surface detection of the Fas receptor, 10^6 cells are suspended in […] PBS with 2.5 mg/ml mouse IgM (Sigma) and […] UB2 antibody (MBL) or IgG1, isotype control serum (Dako). Following 30 min incubation at room temperature, cells are washed with PBS, and incubated in the dark for 30 min with goat anti-mouse Ig-FITC. Fluorescence is measured on a FACScan flow cytometer and analyzed using CellQuest software (Becton Dickinson). For cell cycle analysis, 10^6 cells are fixed in ice-cold ethanol for a minimum of 2 h, washed with PBS, and stained with 5 mg/ml propidium iodide (PI) and […] at 37° C. for 30 min prior to analysis by flow cytometry. Sensitivity to Fas-mediated apoptosis is determined by exposing cells to 500 ng/ml agonistic antibody (CH-11, MBL) or 100 ng/ml Fas ligand (Alexis) for 18-24 h. Apoptosis is measured by staining with Annexin V-FITC (Clontech) and flow cytometry analysis. Fas-specific death is calculated as (% Annexin V positive cells in the CH-11 treated population)−(% Annexin V positive cells in the IgM control population). Programmed cell death in cells transfected with the bicistronic green fluorescent protein vectors (pIRES-EGFP or pIRES-Stat3b) is analyzed after staining with Annexin V-PE (Pharmingen) by two color flow cytometry analysis. […]
# [1] = test system: Bcl-xL overexpressing U266 cells; experiment: Drug-induced apoptosis in U266 cells overexpressing Bcl-xL; conditions: stable U266 clones overexpressing Bcl-xL; 24 h for melphalan and mitoxantrone
# Description: FIG. 23 Enforced Overexpression of Bcl-x Confers Resistance to Chemotherapy. Panel A: U266 cells are transfected with a CMV expression vector encoding Bcl-x, tagged with the FLAG epitope. Several stable, independent clones overexpressing Bcl-xL, as well as empty vector controls (Neo), are isolated and analyzed by Western blot with antibodies to Bcl-xL, or the FLAG epitope tag. B: The indicated cell lines are incubated with either melphalan (LPAM) or mitoxantrone for 24 h, and apoptosis is monitored by AnnexinV-FITC staining and flow cytometry. Overexpression of Bcl-xL protects the cells from chemotherapy-induced apoptosis.
# These Bcl-xL overexpressing cells are resistant to apoptosis induced by AG490, as predicted since the ectopic Bcl-xL is expressed from a CMV promoter and is thus independent of JAK-STAT signaling. […] These findings support one embodiment of the present invention, that Bcl-x confers resistance to chemotherapy-induced apoptosis, and therefore that inhibition of STAT3 signaling promotes chemotherapy-induced apoptosis.
# Bcl-2 = Bcl-2 expression (RT-PCR, Western blot) in U266 cells; conditions: AG490
# Description: Cells are lysed in a buffer composed of 50 mM Tris-Cl, pH 7.4, 5 mM EDTA, 150 mM NaCl, and 0.5% Triton-X 100 containing 1 mg/ml leupeptin and aprotinin, and 1 mM PMSF. Protein content of the cell lysates is quantified by the Bradford assay (Bio-Rad), and […] total protein is dissolved in Laemmli SDS-PAGE sample buffer prior to separation by 10% SDS-PAGE. Proteins are transferred to PVDF membrane and Western blot analysis is performed by standard techniques with ECL detection (Amersham). The Bcl-xL antibody, clone 124 (Dako), is used at a 1:2000 dilution. The Bcl-xL, antibody, clone S-18 (Santa Cruz Biotechnology), is used at a 1:500 dilution. Blots are quantified by densitometry and expression levels were normalized to b-actin (Sigma).
# Total RNA is isolated by lysis in guanidine isothiocyanate followed by centrifugation through a cesium chloride gradient. cDNA is prepared from 200 ng of total RNA in a […] reaction with AMV-RT (Boehringer-Mannheim). […] Tem ml of PCR products are electrophoresed on a 5% acrylamide gel and quantified by phosphorimaging using ImageQuant software (Molecular Dynamics).
# STAT3 = experiment: EMSA (SIE probe) of constitutive STAT3 DNA-binding in U266 myeloma cells; conditions: 50 mM AG490, within 16 to 24 hours
# Description: U266 and RPMI 8226 cell lines are originally obtained from ATCC and maintained in RPMI 1640 medium supplemented with 10% fetal calf serum (FCS). For detection of STATs in primary bone marrow (BM) cells, BM aspirates are diluted 1:2 in phosphate-buffered saline (PBS) and mononuclear cells are separated by the standard Ficoll-Hypaque (Pharmacia LKB Biotechnology) sedimentation procedure. Mononuclear cells are washed twice with PBS, and nuclear extracts are prepared as described below. For inhibitor studies, a minimum of 10^7 U266 cells are treated with 1 mg/ml Sant7 or with […] AG490 (Meydan, et al., 1996, Nature 379:645-648). NIH 3T3 cells overexpressing the human EGF receptor have been described (Garcia, et al., 1997, Immunity 5:449-460).
# Nuclear extracts are prepared as previously described. Briefly, nuclei are isolated and extracted in hypertonic buffer (20 mM HEPES, pH 7.9, 420 mM NaCl, 1 mM EDTA, 1 mM EGTA, 20% glycerol, 20 mM NaF, 1 mM Na3VO4, 1 mM Na2P4O7, 1 mM DTT, 0.5 mM PMSF, 0.1 mM aprotinin, 1 mM leupeptin, and 1 mM antipain). […] Protein-DNA complexes are resolved on 5% non-denaturing polyacrylamide gels and analyzed by autoradiography. […]
smiles,measurement,setting,value
N#C/C(=C\c1ccc(O)c(O)c1)C(=O)NCc1ccccc1 [AG490],sensitivity to Fas-mediated cell death,8226 cells,does not enhance
same,apoptosis induced in Bcl-xL overexpressing cells,[1],resistant
same,expression of Bcl-2,Bcl-2,no effect
same,constitutive STAT3 DNA-binding activity,STAT3,complete abrogation
